Measurements published in patent US10577363B2, “Substituted piperidine compounds” (EPIZYME, INC., priority 2014, dated 2020).
Values belong to the compound of their own block, whether it stands above or below them.

Columns and labels:
SMYD3 [1] = molecular target: T1, SMYD3 (Homo sapiens (Human), UniProt Q9H7B4); experiment: SMYD3 biochemical assay (SPA, 3H-SAM methylation of MEKK2 protein substrate)
In short: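 Methylation of N-terminally GST-tagged MEKK2 by untagged full-length human SMYD3, using 3H-SAM, in pH 8.0 Tris buffer with TCEP, BSG and Tween 20; enzyme and compound sat 30 min at room temperature before substrate addition. Stopped with 100 uM (final) cold SAM; incorporation read by scintillation proximity as dpm/cpm.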

SMYD3 [2] = molecular target: T1, SMYD3; experiment: SMYD3 cell assay (Trimethyl-MEKK2 In-Cell Western in 293T/17 cells); assay type: cell-based
In short: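 In-Cell Western readout: methanol-fixed cells stained for trimethyl-MEKK2 and flag tag, ratio per well normalized to DMSO and background controls.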

[3] = average of n = 1 to n = 50, read-out: SMYD3 Biochem IC50
[4] = average of n = 1 to n = 50, read-out: SMYD3 Cell IC50
[5] = Table 2A, read-out: SMYD3 Biochem IC50
[6] = Table 2A, read-out: SMYD3 Cell IC50
[7] = read-out: SMYD3 Biochem IC50 (μM)*
[8] = 293T/17 cells, read-out: SMYD3 Cell IC50 (μM)*

T1 sequence (Q9H7B4 whole entry): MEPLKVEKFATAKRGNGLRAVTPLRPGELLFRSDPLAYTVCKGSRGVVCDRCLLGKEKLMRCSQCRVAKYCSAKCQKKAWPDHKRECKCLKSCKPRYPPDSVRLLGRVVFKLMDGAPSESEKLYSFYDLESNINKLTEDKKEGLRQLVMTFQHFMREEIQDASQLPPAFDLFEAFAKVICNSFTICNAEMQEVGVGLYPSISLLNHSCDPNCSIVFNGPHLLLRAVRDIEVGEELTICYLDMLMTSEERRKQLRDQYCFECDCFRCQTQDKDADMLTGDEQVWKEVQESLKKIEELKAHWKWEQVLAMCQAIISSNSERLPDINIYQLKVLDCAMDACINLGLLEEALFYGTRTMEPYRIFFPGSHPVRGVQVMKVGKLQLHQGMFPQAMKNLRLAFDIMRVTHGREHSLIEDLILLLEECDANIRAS

SMILES: O=C(N[C@H]1C[C@H]2CC[C@@H](C1)N2S(=O)(=O)N1CC2CCC(C1)N2CCCO)c1cc(C2CC2)on1 [compound 850, 5-cyclopropyl-N-((1R,3r,5S)-8-((8-(3-hydroxypropyl)-3,8-diazabicyclo[3.2.1]octan-3-yl)sulfonyl)-8-azabicyclo[3.2.1]octan-3-yl)isoxazole-3-carboxamide]
IC50 (SMYD3 [1]; read-out: SMYD3 Biochem IC50*): 0.00621 µM
IC50 (SMYD3 [2]; read-out: SMYD3 Cell IC50*): 0.0588 µM

SMILES: O=C(N[C@H]1C[C@H]2CC[C@@H](C1)N2S(=O)(=O)N1CC2COCC(C1)N2)c1cc(C2CC2)on1 [compound 758, N-((1R,3r,5S)-8-((3-oxa-7,9-diazabicyclo[3.3.1]nonan-7-yl)sulfonyl)-8-azabicyclo[3.2.1]octan-3-yl)-5-cyclopropylisoxazole-3-carboxamide]
IC50 (SMYD3 [1]; [3]): 0.731 µM
IC50 (SMYD3 [2]; [4]): 1.65 µM

SMILES: CC1CNCCN1S(=O)(=O)N1[C@@H]2CC[C@H]1C[C@@H](NC(=O)c1cc(C3CC3)on1)C2 (stereo partly drawn) [compound 901, 5-cyclopropyl-N-((1R,3r,5S)-8-((2-methylpiperazin-1-yl)sulfonyl)-8-azabicyclo[3.2.1]octan-3-yl)isoxazole-3-carboxamide]
IC50 (SMYD3 [1]; read-out: SMYD3 Biochem IC50*): 0.0151 µM
IC50 (SMYD3 [2]; read-out: SMYD3 Cell IC50*): 0.0977 µM

SMILES: C[C@H]1CN(S(=O)(=O)N2[C@@H]3CC[C@H]2C[C@@H](NC(=O)c2cc(C4CC4)on2)C3)[C@@H](C)CN1 [compound 915, 5-cyclopropyl-N-((1R,3S,5S)-8-(((2S,5S)-2,5-dimethylpiperazin-1-yl)sulfonyl)-8-azabicyclo[3.2.1]octan-3-yl)isoxazole-3-carboxamide]
IC50 (SMYD3 [1]; read-out: SMYD3 Biochem IC50*): 0.0232 µM
IC50 (SMYD3 [2]; read-out: SMYD3 Cell IC50*): 0.231 µM

SMILES: C[C@H]1CN(S(=O)(=O)N(C)C2CCN(Cc3ccccc3)CC2)CC[C@H]1NC(=O)c1cc(C2CC2)on1 [compound 719, N-((3S,4R)-1-(N-(1-benzylpiperidin-4-yl)-N-methylsulfamoyl)-3-methylpiperidin-4-yl)-5-cyclopropylisoxazole-3-carboxamide]
IC50 (SMYD3 [1]; [3]): 0.32 µM
IC50 (SMYD3 [2]; [4]): 1.21 µM

SMILES: C[C@@H]1C[C@@H](NS(=O)(=O)N2[C@@H]3CC[C@H]2C[C@@H](NC(=O)c2cc(C4CC4)on2)C3)CCN1 [compound 877, 5-cyclopropyl-N-((1R,3S,5S)-8-(N-((2R,4S)-2-methylpiperidin-4-yl)sulfamoyl)-8-azabicyclo[3.2.1]octan-3-yl)isoxazole-3-carboxamide]
IC50 (SMYD3 [1]; read-out: SMYD3 Biochem IC50*): 0.01 µM
IC50 (SMYD3 [2]; read-out: SMYD3 Cell IC50*): 0.176 µM

SMILES: NC[C@H](Cc1ccc(O)c(I)c1)C(=O)N1CCC(NC(=O)c2cc(C3CC3)on2)CC1 [compound 29, (S)-N-(1-(3-amino-2-(4-hydroxy-3-iodobenzyl)propanoyl)piperidin-4-yl)-5-cyclopropylisoxazole-3-carboxamide]
IC50 (SMYD3 [1]; [7]): 0.0423 µM
IC50 (SMYD3 [2]; read-out: SMYD3 Cell IC50 (μM)*): 1.1 µM

SMILES: O=C(N[C@H]1C[C@H]2CC[C@@H](C1)N2S(=O)(=O)NC1CCN[C@H](Cc2ccccc2)C1)c1cc(C2CC2)on1 (stereo partly drawn) [compound 942, N-((1R,3R,5S)-8-(N-((2R)-2-benzylpiperidin-4-yl)sulfamoyl)-8-azabicyclo[3.2.1]octan-3-yl)-5-cyclopropylisoxazole-3-carboxamide]
IC50 (SMYD3 [1]; read-out: SMYD3 Biochem IC50*): 0.0481 µM
IC50 (SMYD3 [2]; read-out: SMYD3 Cell IC50*): 0.659 µM

SMILES: O=C(N[C@H]1C[C@H]2CC[C@@H](C1)N2S(=O)(=O)CCCN1CCCC1)c1cc(C2CC2)on1 [compound 597, 5-cyclopropyl-N-((1R,3r,5S)-8-((3-(pyrrolidin-1-yl)propyl)sulfonyl)-8-azabicyclo[3.2.1]octan-3-yl)isoxazole-3-carboxamide]
IC50 (SMYD3 [1]; [5]): 0.0129 µM
IC50 (SMYD3 [2]; [6]): 0.217 µM

SMILES: CC(C)N1CCC(CS(=O)(=O)N2[C@@H]3CC[C@H]2C[C@@H](NC(=O)c2cc(C4CC4)on2)C3)CC1 [compound 787, 5-cyclopropyl-N-((1R,3r,5S)-8-(((1-isopropylpiperidin-4-yl)methyl)sulfonyl)-8-azabicyclo[3.2.1]octan-3-yl)isoxazole-3-carboxamide]
IC50 (SMYD3 [1]; read-out: SMYD3 Biochem IC50*): 0.00138 µM
IC50 (SMYD3 [2]; read-out: SMYD3 Cell IC50*): 0.0386 µM

SMILES: CN1C2CC1CN(S(=O)(=O)N1[C@@H]3CC[C@H]1C[C@@H](NC(=O)c1cc(C4CC4)on1)C3)C2 [compound 582, 5-cyclopropyl-N-((1R,3r,5S)-8-((6-methyl-3,6-diazabicyclo[3.1.1]heptan-3-yl)sulfonyl)-8-azabicyclo[3.2.1]octan-3-yl)isoxazole-3-carboxamide]
IC50 (SMYD3 [1]; [5]): 0.0101 µM
IC50 (SMYD3 [2]; [6]): 0.151 µM

SMILES: O=C(N[C@H]1C[C@H]2CC[C@@H](C1)N2S(=O)(=O)[C@@H]1CCCN(CCO)C1)c1cc(C2CC2)on1 [compound 981, 5-cyclopropyl-N-((1R,3R,5S)-8-(((R)-1-(2-hydroxyethyl)piperidin-3-yl)sulfonyl)-8-azabicyclo[3.2.1]octan-3-yl)isoxazole-3-carboxamide]
IC50 (SMYD3 [1]; IC50 values are an average of n = 1 to n = 50, read-out: SMYD3 Biochem IC50*): 0.127 µM
IC50 (SMYD3 [2]; IC50 values are an average of n = 1 to n = 50, read-out: SMYD3 Cell IC50*): 0.466 µM

SMILES: CN1CCN(S(=O)(=O)N2[C@@H]3CC[C@H]2C[C@@H](NC(=O)c2cc(C4CC4)on2)C3)CC1 [compound 641, 5-cyclopropyl-N-((1R,3r,5S)-8-((4-methylpiperazin-1-yl)sulfonyl)-8-azabicyclo[3.2.1]octan-3-yl)isoxazole-3-carboxamide]
IC50 (SMYD3 [1]; [3]): 0.0363 µM
IC50 (SMYD3 [2]; [4]): 0.188 µM

Results, then the compound that gave them:

IC50 (SMYD3 [1]; [3]): 0.431 µM
IC50 (SMYD3 [2]; [4]): 1.46 µM
SMILES: C[C@H]1CN(S(=O)(=O)CCN2CCCC2)[C@@H](C)C[C@H]1NC(=O)c1cc(C2CC2)on1 [compound 732, 5-cyclopropyl-N-((2S,4R,5S)-2,5-dimethyl-1-((2-(pyrrolidin-1-yl)ethyl)sulfonyl)piperidin-4-yl)isoxazole-3-carboxamide]

IC50 (SMYD3 [1]; [3]): 0.169 µM
IC50 (SMYD3 [2]; [4]): 1.83 µM
SMILES: C[C@H]1C[C@@H](NC(=O)c2cc(C3CC3)on2)CCN1S(=O)(=O)C(CCN)c1ccccc1 (stereo partly drawn) [compound 695, N-((2S,4S)-1-((3-amino-1-phenylpropyl)sulfonyl)-2-methylpiperidin-4-yl)-5-cyclopropylisoxazole-3-carboxamide]

IC50 (SMYD3 [1]; [5]): 0.0253 µM
IC50 (SMYD3 [2]; [6]): 0.157 µM
SMILES: C[C@H]1C[C@@H](NC(=O)c2cc(C3CC3)on2)CCN1S(=O)(=O)N1C[C@H]2C[C@@H]1CN2C [compound 626, 5-cyclopropyl-N-((2S,4S)-2-methyl-1-(((1R,4R)-5-methyl-2,5-diazabicyclo[2.2.1]heptan-2-yl)sulfonyl)piperidin-4-yl)isoxazole-3-carboxamide]

IC50 (SMYD3 [1]; [7]): > 10 µM
IC50 (SMYD3 [2]; [8]): > 40 µM
SMILES: C[C@H]1C[C@H](NC(=O)c2cc(C3CC3)on2)CCN1S(=O)(=O)c1cn(C)cn1 [compound 291, 5-cyclopropyl-N-((2S,4R)-2-methyl-1-((1-methyl-1H-imidazol-4-yl)sulfonyl)piperidin-4-yl)isoxazole-3-carboxamide]

IC50 (SMYD3 [1]; [3]): 0.0413 µM
IC50 (SMYD3 [2]; [4]): 0.303 µM
SMILES: C[C@@H]1C[C@H](NC(=O)c2cc(C3CC3)on2)CCN1C(=O)c1ccc(C2CCNCC2)cc1 [compound 644, 5-cyclopropyl-N-((2R,4R)-2-methyl-1-(4-(piperidin-4-yl)benzoyl)piperidin-4-yl)isoxazole-3-carboxamide]

IC50 (SMYD3 [1]; [7]): 0.0815 µM
IC50 (SMYD3 [2]; [8]): 0.266 µM
SMILES: C[C@H]1C[C@@H](NC(=O)c2cc(C3CC3)on2)CCN1S(=O)(=O)N1CCN(C)CC1 [Cpd. No. 279, 5-cyclopropyl-N-[(2S,4S)-2-methyl-1-(4-methylpiperazine-1-sulfonyl)piperidin-4-yl]-1,2-oxazole-3-carboxamide]

IC50 (SMYD3 [1]; [7]): 0.928 µM
IC50 (SMYD3 [2]; [8]): 2.83 µM
SMILES: C[C@H]1C[C@@H](NC(=O)c2cc(C3CC3)on2)CCN1S(=O)(=O)C1CCOC1 (stereo partly drawn) [compound 482, 5-cyclopropyl-N-((2S,4S)-2-methyl-1-((tetrahydrofuran-3-yl)sulfonyl)piperidin-4-yl)isoxazole-3-carboxamide]

IC50 (SMYD3 [1]; [3]): 0.121 µM
IC50 (SMYD3 [2]; [4]): 1.25 µM
SMILES: CN1CCC(CS(=O)(=O)N2CC[C@H](NC(=O)c3cc(C4CC4)on3)C[C@@H]2Cc2ccccc2)CC1 [compound 682, N-((2S,4S)-2-benzyl-1-(((1-methylpiperidin-4-yl)methyl)sulfonyl)piperidin-4-yl)-5-cyclopropylisoxazole-3-carboxamide]

IC50 (SMYD3 [1]; [5]): 0.0109 µM
IC50 (SMYD3 [2]; [6]): 0.152 µM
SMILES: C[C@@H]1C[C@H](NC(=O)c2cc(C3CC3)on2)CCN1S(=O)(=O)CC1CCN(CCO)CC1 [compound 589, 5-cyclopropyl-N-((2R,4R)-1-(((1-(2-hydroxyethyl)piperidin-4-yl)methyl)sulfonyl)-2-methylpiperidin-4-yl)isoxazole-3-carboxamide]

IC50 (SMYD3 [1]; [3]): 0.751 µM
IC50 (SMYD3 [2]; [4]): 2.85 µM
SMILES: CC(=O)NCc1ccc(S(=O)(=O)N2CC[C@H](NC(=O)c3cc(C4CC4)on3)C[C@@H]2C)cc1 [compound 761, N-((2S,4S)-1-((4-(acetamidomethyl)phenyl)sulfonyl)-2-methylpiperidin-4-yl)-5-cyclopropylisoxazole-3-carboxamide]

IC50 (SMYD3 [1]; [3]): 0.17 µM
IC50 (SMYD3 [2]; [4]): 1.55 µM
SMILES: C[C@H]1CN(S(=O)(=O)NC2CCN(Cc3ccccc3)CC2)CC[C@H]1NC(=O)c1cc(C2CC2)on1 [compound 696, N-((3S,4R)-1-(N-(1-benzylpiperidin-4-yl)sulfamoyl)-3-methylpiperidin-4-yl)-5-cyclopropylisoxazole-3-carboxamide]

IC50 (SMYD3 [1]; [5]): 0.0095 µM
IC50 (SMYD3 [2]; [6]): 0.587 µM
SMILES: C[C@@H]1C[C@H](NC(=O)c2cc(C3CC3)on2)CCN1S(=O)(=O)CC1CCN(CCN2CCCCC2)CC1 [compound 579, 5-cyclopropyl-N-((2R,4R)-2-methyl-1-(((1-(2-(piperidin-1-yl)ethyl)piperidin-4-yl)methyl)sulfonyl)piperidin-4-yl)isoxazole-3-carboxamide]
